Paper PMC11772017 (Clinical and Translational Science, 2025)
Where a name gives a salt, the structure may show the parent alone.

Columns and labels:
CYP2D6*17 [1] = target: T1, CYP2D6*17 (Homo sapiens, UniProt P10635, R296C/S486T/T107I); assay: Inhibition of tramadol O-demethylation, CYP2D6*17 Bactosomes; settings: for Ki Ratio CYP2D6*17/CYP2D6*1: Ki of variant allele / Ki of CYP2D6*1
CYP2D6*2 [2] = target: T2, CYP2D6*2 (Homo sapiens, UniProt P10635, R296C/S486T); assay: Inhibition of tramadol O-demethylation, CYP2D6*2 Bactosomes; settings: for Ki Ratio CYP2D6*2/CYP2D6*1: Ki of variant allele / Ki of CYP2D6*1
CYP2D6*10 [3] = target: T3, CYP2D6*10 (Homo sapiens, UniProt P10635, P34S/S486T); assay: Inhibition of tramadol O-demethylation, CYP2D6*10 Bactosomes; settings: for Ki Ratio CYP2D6*10/CYP2D6*1: Ki of variant allele / Ki of CYP2D6*1
CYP2D6*1 [4] = target: T4, CYP2D6*1 (Homo sapiens, UniProt P10635); assay: Inhibition of tramadol O-demethylation, CYP2D6*1 Bactosomes
CYP2D6*1 [5] = target: T4, CYP2D6*1
CYP2D6*17 [6] = target: T1, CYP2D6*17
CYP2D6*17 [7] = settings: tramadol as substrate; cited from earlier work
CYP2D6*10 [8] = target: T3, CYP2D6*10
CYP2D6*10 [9] = settings: microsomes prepared from insect cells; cited from earlier work
CYP2D6*2 [10] = target: T2, CYP2D6*2

Question: For CN(C/C=C/C#CC(C)(C)C)Cc1cccc2ccccc12 [Terbinafine, terbinafine], which Ki (CYP2D6*17 [1]) is on record?
Answer: 0.844 µM

Question: What about the “Ki Ratio CYP2D6*17/CYP2D6*1” value (CYP2D6*17 [1]) of the same molecule?
Answer: 48.77

Question: What about the Ki (CYP2D6*2 [2]) of the same molecule?
Answer: 0.067 µM

Question: What about the “Ki Ratio CYP2D6*2/CYP2D6*1” value (CYP2D6*2 [2]) of the same molecule?
Answer: 3.87

Question: What about the Ki (CYP2D6*10 [3]) of the same molecule?
Answer: 0.235 µM

Question: And the “Ki Ratio CYP2D6*10/CYP2D6*1” value (CYP2D6*10 [3])?
Answer: 13.61

Question: And the Ki (CYP2D6*1 [4])?
Answer: 0.0173 µM

Question: Which results are given for COc1cccc(C2(O)CCCCC2CN(C)C)c1 (stereo not drawn) [Tramadol, tramadol hydrochloride]?
Answer: CLint (CYP2D6*1 [5]; CYP2D6*1, CLint = Vmax/Km): 0.4 μL/min/pmol P450; Vmax (CYP2D6*1 [5]; CYP2D6*1, O-desmethyltramadol formation): 22.6 pmol/min/pmol P450; Km at 30 min (CYP2D6*1 [5]; human, recombinant CYP2D6*1 Bactosomes, pH 7.4): 59.6 µM; intrinsic clearance compared to CYP2D6*1 (CYP2D6*17 [6]; CYP2D6*17, relative to CYP2D6*1): 10%; CLint ratio CYP2D6*X/CYP2D6*1 (CYP2D6*17 [6]; CYP2D6*17/CYP2D6*1): 0.1; Vmax (CYP2D6*17 [6]; CYP2D6*17, O-desmethyltramadol formation): 5.6 pmol/min/pmol P450; Km at 30 min (CYP2D6*17 [6]; human, recombinant CYP2D6*17 Bactosomes, pH 7.4): 149 µM; intrinsic clearance relative to CYP2D6*1 (CYP2D6*17 [7]): 36%; intrinsic clearance compared to CYP2D6*1 (CYP2D6*10 [8]; CYP2D6*10, relative to CYP2D6*1): 20%; CLint ratio CYP2D6*X/CYP2D6*1 (CYP2D6*10 [8]; CYP2D6*10/CYP2D6*1): 0.2; CLint (CYP2D6*10 [8]; CYP2D6*10, CLint = Vmax/Km): 0.1 μL/min/pmol P450; Vmax (CYP2D6*10 [8]; CYP2D6*10, O-desmethyltramadol formation): 13.6 pmol/min/pmol P450; Km at 30 min (CYP2D6*10 [8]; human, recombinant CYP2D6*10 Bactosomes, pH 7.4): 204 µM; intrinsic clearance value, % of that for CYP2D6*1 (CYP2D6*10 [9]): 6.9%; intrinsic clearance compared to CYP2D6*1 (CYP2D6*2 [10]; CYP2D6*2, relative to CYP2D6*1): 180%; CLint ratio CYP2D6*X/CYP2D6*1 (CYP2D6*2 [10]; CYP2D6*2/CYP2D6*1): 1.8; CLint (CYP2D6*2 [10]; CYP2D6*2, CLint = Vmax/Km): 0.7 μL/min/pmol P450; Vmax (CYP2D6*2 [10]; CYP2D6*2, O-desmethyltramadol formation): 39.7 pmol/min/pmol P450; Km at 30 min (CYP2D6*2 [10]; human, recombinant CYP2D6*2 Bactosomes, pH 7.4): 59.4 µM

Question: What does the source list for CC(NC(C)(C)C)C(=O)c1cccc(Cl)c1 (stereo not drawn) [Bupropion, bupropion]?
Answer: Ki (CYP2D6*17 [1]): 20.2 µM; Ki Ratio CYP2D6*17/CYP2D6*1 (CYP2D6*17 [1]): 1.70; Ki (CYP2D6*2 [2]): 11.5 µM; Ki Ratio CYP2D6*2/CYP2D6*1 (CYP2D6*2 [2]): 0.96; Ki (CYP2D6*10 [3]): 55.9 µM; Ki Ratio CYP2D6*10/CYP2D6*1 (CYP2D6*10 [3]): 4.69; Ki (CYP2D6*1 [4]): 11.9 µM
